Earlier results on five compounds are cited in patent publication US6506390B2, “Progestogen-anti-progestogen regimens” (Akzo Nobel, priority 1996, dated 2003).

SMILES strings stand for the structures.

The conditions of data set [1]: based on practically applied doses; for relative potency in progestogenic activity: levonorgestrel, desogestrel and 3-keto-desogestrel compared with each other.
For data set [2] the following is noted: as an approximation.

Consider `C#C[C@]1(O)CC[C@H]2[C@@H]3CCC4=CC(=O)CC[C@@H]4[C@H]3C(=C)C[C@@]21CC` [3-keto-desogestrel], for which the “relative potency in progestogenic activity” value in data set [1] is reported as “relatively equipotent”.

`C#C[C@]1(O)CC[C@H]2[C@@H]3CCc4cc(OC)ccc4[C@H]3CC[C@@]21C` [mestranol, 17-α-ethinyl estradiol 3-methylether]: in data set [2], the “amount equivalent in estrogenic activity to 1 mg of 17β-estradiol” value was roughly 0.030 mg.

For the compound `C#C[C@]1(O)CC[C@H]2[C@@H]3CCC4=CCCC[C@@H]4[C@H]3C(=C)C[C@@]21CC` [desogestrel, 13-ethyl-11-methylene-18,19-di-nor-17α-pregn-4-en-20-yn-17-ol], in data set [1], the “relative potency in progestogenic activity” value is on record as “relatively equipotent”.

Turning to `C#CC1(O)CC[C@H]2[C@@H]3CCC4=CC(=O)CC[C@@H]4[C@H]3CC[C@@]21CC` (some centres unmarked) [Norgestrel, norgestrel], the “potency relative to levonorgestrel” value in data set [1] (progestogenic activity) was “about one-half”.

With `C#C[C@]1(O)C=C[C@H]2[C@@H]3CCC4=CC(=O)CC[C@@H]4[C@H]3CC[C@@]21CC` [Gestodene, gestodene], the “potency relative to levonorgestrel, desogestrel and 3-keto-desogestrel” value in data set [1] (progestogenic activity) was “approximately 1.5 times”.
